Earlier results in patent US7892523B2, “Cosmetic process for the treatment of the skin with sun-protection products and sun-protection products combination” (Coty B.V., priority 2004, dated 2011).

Settings: known RPFs of standard antioxidants / usual formulations

| Compound | radical protection factor (RPF) |
| --- | --- |
| Cc1c(C)c2c(c(C)c1O)CCC(C)(CCCC(C)CCCC(C)CCCC(C)C)O2 (racemic) [DL-α-tocopherol] | 41,200 ×10^14 radicals/mg |
| CC(=O)OC/C=C(C)/C=C/C=C(C)/C=C/C1=C(C)CCCC1(C)C [all-trans-retinol acetate] | 196 ×10^14 radicals/mg |
| CC1=C(/C=C/C(C)=C/C=C/C(C)=C/CO)C(C)(C)CCC1 [all-trans-retinol] | 827 ×10^14 radicals/mg |
| CC(=O)Oc1c(C)c(C)c2c(c1C)CCC(C)(CCC[C@H](C)CCC[C@H](C)CCCC(C)C)O2 (stereo partly drawn) [α-tocopherol acetate] | 48 ×10^14 radicals/mg |
